Columns and labels:
Assay in all cases: relative viability (nuclei count vs DMSO), 5 days (fraction); higher = more cells survive
[1] = system: SK-MES-1
How it was run: (§1)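 Relative viability was taken as the ratio of nuclei in treated wells to nuclei in vehicle wells. Lung cancer cell lines in 1536-well plates received compounds by pin tool one day after seeding, either one drug alone or a fixed anchor-drug dose plus five library-drug doses (not always all listed) in √10 steps. Nuclei were counted on 4× images after 5 days of treatment, and values are medians of duplicate plates.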

[2] = system: NCI-H1563
How it was run: as §1

[3] = system: PC-3 [JPC-3]
How it was run: as §1

[4] = system: NCI-H520
How it was run: as §1

[5] = system: NCI-H23
How it was run: as §1

[6] = system: NCI-H1755
How it was run: as §1

[7] = system: NCI-H1792
How it was run: as §1

[8] = system: LK-2
How it was run: as §1

[9] = system: NCI-H2170
How it was run: as §1

[10] = system: NCI-H1666
How it was run: as §1

[11] = system: NCI-H1944
How it was run: as §1

[12] = system: NCI-H596
How it was run: as §1

[13] = system: NCI-H1975
How it was run: as §1

[14] = system: EMC-BAC-2
How it was run: as §1

[15] = system: EKVX
How it was run: as §1

[16] = system: HCC-366
How it was run: as §1

[17] = system: A-427
How it was run: as §1

[18] = system: H3255
How it was run: as §1

[19] = system: NCI-H1734
How it was run: as §1

[20] = system: COR-L 105
How it was run: as §1

[21] = system: NCI-H441
How it was run: as §1

[22] = system: LOU-NH91
How it was run: as §1

SMILES: C[C@@H]1CN(CC(=O)Nc2ccc3c(c2)Cc2cccc(-c4cc(=O)cc(N5CCOCC5)o4)c2S3)C[C@H](C)O1 + Cc1nc(NC(=O)N2CCC[C@H]2C(N)=O)sc1-c1ccnc(C(C)(C)C(F)(F)F)c1 [Alpelisib] (partner 2 µM)
- relative viability ([1]; first compound 0.04 µM): 0.927
- relative viability ([1]; first compound 0.1265 µM): 0.826
- relative viability ([1]; first compound 0.4 µM): 1.02
- relative viability ([1]; first compound 4 µM): 0.813
- relative viability ([2]; first compound 0.04 µM): 0.942
- relative viability ([2]; first compound 0.1265 µM): 0.918
- relative viability ([2]; first compound 0.4 µM): 0.748
- relative viability ([2]; first compound 4 µM): 0.753
- relative viability ([3]; first compound 0.04 µM): 1.02
- relative viability ([3]; first compound 0.1265 µM): 1
- relative viability ([3]; first compound 0.4 µM): 1
- relative viability ([3]; first compound 4 µM): 0.952
- relative viability ([4]; first compound 0.04 µM): 0.974
- relative viability ([4]; first compound 0.1265 µM): 0.917
- relative viability ([4]; first compound 0.4 µM): 0.535
- relative viability ([4]; first compound 4 µM): 0.854
- relative viability ([5]; first compound 0.04 µM): 0.715
- relative viability ([5]; first compound 0.1265 µM): 0.639
- relative viability ([5]; first compound 0.4 µM): 0.624
- relative viability ([5]; first compound 4 µM): 0.727
- relative viability ([6]; first compound 0.04 µM): 0.934
- relative viability ([6]; first compound 0.1265 µM): 0.88
- relative viability ([6]; first compound 0.4 µM): 0.845
- relative viability ([6]; first compound 4 µM): 0.863
- relative viability ([7]; first compound 0.04 µM): 0.685
- relative viability ([7]; first compound 0.1265 µM): 0.677
- relative viability ([7]; first compound 0.4 µM): 0.707
- relative viability ([7]; first compound 4 µM): 0.665
- relative viability ([8]; first compound 0.1265 µM): 1.11
- relative viability ([8]; first compound 0.4 µM): 1.18
- relative viability ([8]; first compound 4 µM): 1.28
- relative viability ([9]; first compound 0.1265 µM): 0.761
- relative viability ([9]; first compound 0.4 µM): 0.727
- relative viability ([9]; first compound 4 µM): 0.751
- relative viability ([10]; first compound 0.04 µM): 1.17
- relative viability ([10]; first compound 0.1265 µM): 1.12
- relative viability ([10]; first compound 0.4 µM): 0.964
- relative viability ([10]; first compound 4 µM): 0.654
- relative viability ([11]; first compound 0.1265 µM): 0.826
- relative viability ([11]; first compound 0.4 µM): 0.86
- relative viability ([11]; first compound 4 µM): 0.814
- relative viability ([12]; first compound 0.04 µM): 0.513
- relative viability ([12]; first compound 0.1265 µM): 0.451
- relative viability ([12]; first compound 0.4 µM): 0.384
- relative viability ([12]; first compound 4 µM): 0.428
- relative viability ([13]; first compound 0.04 µM): 0.666
- relative viability ([13]; first compound 0.1265 µM): 0.587
- relative viability ([13]; first compound 0.4 µM): 0.551
- relative viability ([13]; first compound 4 µM): 0.438
- relative viability ([14]; first compound 0.04 µM): 0.748
- relative viability ([14]; first compound 0.1265 µM): 0.771
- relative viability ([14]; first compound 0.4 µM): 0.726
- relative viability ([14]; first compound 4 µM): 0.73
- relative viability ([15]; first compound 0.04 µM): 0.737
- relative viability ([15]; first compound 0.1265 µM): 0.818
- relative viability ([15]; first compound 0.4 µM): 0.818
- relative viability ([15]; first compound 4 µM): 0.732
- relative viability ([16]; first compound 0.04 µM): 0.379
- relative viability ([16]; first compound 0.1265 µM): 0.414
- relative viability ([16]; first compound 0.4 µM): 0.315
- relative viability ([16]; first compound 4 µM): 0.368
- relative viability ([17]; first compound 0.04 µM): 1.12
- relative viability ([17]; first compound 0.1265 µM): 1.08
- relative viability ([17]; first compound 0.4 µM): 1.07
- relative viability ([17]; first compound 4 µM): 1.07
- relative viability ([18]; first compound 0.04 µM): 0.569
- relative viability ([18]; first compound 0.1265 µM): 0.659
- relative viability ([18]; first compound 0.4 µM): 0.549
- relative viability ([18]; first compound 4 µM): 0.611
- relative viability ([19]; first compound 0.04 µM): 0.759
- relative viability ([19]; first compound 0.1265 µM): 0.673
- relative viability ([19]; first compound 0.4 µM): 0.567
- relative viability ([19]; first compound 4 µM): 0.746
- relative viability ([20]; first compound 0.04 µM): 1.09
- relative viability ([20]; first compound 0.1265 µM): 0.998
- relative viability ([20]; first compound 0.4 µM): 1.04
- relative viability ([20]; first compound 4 µM): 0.896
- relative viability ([21]; first compound 0.04 µM): 0.942
- relative viability ([21]; first compound 0.4 µM): 0.675
- relative viability ([21]; first compound 4 µM): 0.584
- relative viability ([22]; first compound 0.04 µM): 0.756
- relative viability ([22]; first compound 0.1265 µM): 0.72
- relative viability ([22]; first compound 0.4 µM): 0.692
- relative viability ([22]; first compound 4 µM): 0.689
